{
  "source": "paper PMC12060149",
  "about": "(RSC Advances, 2025)",
  "origin": "cited, not measured here",
  "key": {"breast cancer tumor": {"test_system": "breast cancer tumor", "settings": "mice"}, "ACE2": {"target": "ACE2 (Homo sapiens, UniProt Q9BYF1)", "sequence (Q9BYF1 18-805)": "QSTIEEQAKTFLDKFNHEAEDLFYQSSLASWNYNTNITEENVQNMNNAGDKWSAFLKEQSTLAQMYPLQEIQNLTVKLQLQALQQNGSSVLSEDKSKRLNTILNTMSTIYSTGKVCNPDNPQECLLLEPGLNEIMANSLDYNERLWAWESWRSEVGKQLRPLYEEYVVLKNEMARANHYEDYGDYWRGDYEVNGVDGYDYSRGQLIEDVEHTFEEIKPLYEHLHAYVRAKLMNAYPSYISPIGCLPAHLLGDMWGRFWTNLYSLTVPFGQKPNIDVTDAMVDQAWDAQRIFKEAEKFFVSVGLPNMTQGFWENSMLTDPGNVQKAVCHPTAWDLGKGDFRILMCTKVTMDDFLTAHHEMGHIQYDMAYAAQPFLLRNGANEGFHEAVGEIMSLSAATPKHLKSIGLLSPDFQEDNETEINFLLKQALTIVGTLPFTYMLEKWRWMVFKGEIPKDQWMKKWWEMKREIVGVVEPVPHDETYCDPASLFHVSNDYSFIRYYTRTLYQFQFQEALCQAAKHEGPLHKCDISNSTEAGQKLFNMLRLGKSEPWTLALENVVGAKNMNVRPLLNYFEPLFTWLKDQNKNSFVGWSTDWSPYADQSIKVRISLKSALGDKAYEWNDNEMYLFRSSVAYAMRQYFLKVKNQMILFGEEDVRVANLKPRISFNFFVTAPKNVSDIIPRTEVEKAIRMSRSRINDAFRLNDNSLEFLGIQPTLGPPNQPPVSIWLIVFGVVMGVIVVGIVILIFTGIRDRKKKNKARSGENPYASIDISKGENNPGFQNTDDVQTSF"}},
  "data": [
    {"compound": "NCCC(=O)N[C@@H](Cc1cnc[nH]1)C(=O)O", "note": "[carnosine, Carnosine]", "values": [
      {"measurement": "breast cancer tumor size", "setting": "breast cancer tumor", "value": "reduces the breast cancer tumor size"},
      {"measurement": "concentration range of mild ACE2 inhibition", "setting": "ACE2", "value": "100 to 300", "unit": "mM"},
      {"measurement": "MCF-7 proliferation", "setting": "MCF-7; carnosine in the 100–300 mM range", "value": "increased but non-significantly"},
      {"measurement": "IC50", "setting": "MCF-7; read-out: IC50 of antiproliferative effect, two other research groups", "value": "~68", "unit": "mM"}
    ]}
  ]
}
